What was measured:
[1] = biological target: T1, CYP11B1 (steroid 11-hydroxylase) (Homo sapiens, UniProt P15538); experiment: Inhibition of cortisol secretion in NCI-H295R cells; assay type: cell-based; settings: human adrenocortical carcinoma NCI-H295R cells, 24 hours with cell stimulant
T1 construct: the NCI-H295R cells have CYP11B2 (aldosterone synthase) and CYP11B1 (steroid 11-hydroxylase); host or cells: NCI-H295R
T1 sequence (P15538 25-503): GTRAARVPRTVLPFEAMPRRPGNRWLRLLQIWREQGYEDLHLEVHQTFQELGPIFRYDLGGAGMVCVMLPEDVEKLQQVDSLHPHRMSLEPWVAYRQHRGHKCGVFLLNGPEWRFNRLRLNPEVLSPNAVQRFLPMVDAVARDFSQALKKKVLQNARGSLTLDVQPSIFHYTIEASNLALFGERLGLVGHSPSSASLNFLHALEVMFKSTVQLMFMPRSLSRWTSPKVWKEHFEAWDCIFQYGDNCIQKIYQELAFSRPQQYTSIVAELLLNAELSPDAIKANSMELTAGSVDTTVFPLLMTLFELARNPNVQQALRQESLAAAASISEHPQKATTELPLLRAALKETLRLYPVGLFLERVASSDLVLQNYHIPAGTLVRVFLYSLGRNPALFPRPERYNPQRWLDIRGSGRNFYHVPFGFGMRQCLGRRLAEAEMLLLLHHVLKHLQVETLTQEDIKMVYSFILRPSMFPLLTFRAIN
Description: (§1) The activities of a compound according to the present invention can be assessed by the following in vitro method well-described in the art.
(§2) In particular, the inhibition of aldosterone and cortisol secretion in vitro can be determined by the following assay.
(§3) The cell line NCI-H295R was originally isolated from an adrenocortical carcinoma and has been characterized in the literature through the stimulable secretion of steroid hormones and the presence of the enzymes essential for steroidogenesis. The cells show the physiological property of zonally undifferentiated human foetal adrenocortical cells which, however, have the capacity to produce the steroid hormones which are formed in the three phenotypically distinguishable zones in the adult adrenal cortex. Thus, the NCI-H295R cells have CYP11B2 (aldosterone synthase) and CYP11B1 (steroid 11-hydroxylase).
(§4) The human adrenocortical carcinoma NCI-H295R cell line is obtained from American Type Culture Collection (Manassas, Va.). Insulin/transferrin/selenium (ITS)-A supplement (100×), DMEM/F-12, antibiotic/antimycotic (100×), and fetal calf serum (FCS) are purchased from Invitrogen (Carlsbad, Calif.). Anti-mouse PVT scintillation proximity assay (SPA) beads and NBS 96-well plates are obtained from Amersham (Piscataway, N.J.) and Corning (Acton, Mass.), respectively. Clear bottom 96-well flat bottom plates are purchased from Costar (Corning, N.Y.). Aldosterone and angiotensin (Ang II) are purchased from Sigma (St. Louis, Mo.). D[1,2,6,7-3H(N)]aldosterone and [1,2,6,7-3H(N)]cortisol are acquired from PerkinElmer (Boston, Mass.). Nu-serum is a product of BD Biosciences (Franklin Lakes, N.J.).
(§5) For in vitro measurement of aldosterone and cortisol activity, human adrenocortical carcinoma NCI-H295R cells are seeded in NBS 96-well plates at a density of 25,000 cells/well in 100 μL of a growth medium containing DMEM/F12 supplemented with 10% FCS, 2.5% Nu-serum, 1 μg ITS/ml, and 1× antibiotic/antimycotic. The medium is changed after culturing for 3 days at 37° C. under an atmosphere of 5% CO2/95% air. On the following day, cells are rinsed with 100 μL of DMEM/F12 and incubated in quadruplicate wells at 37° C. for 24 hours with 100 μL of treatment medium containing a cell stimulant and a compound at different concentrations. […] Cell stimulants which can be used are angiotensin-II (1 micromolar), potassium ions (16 millimolar), forskolin (10 micromolar) or a combination of two stimulants. At the end of incubation, the excretion of aldosterone and cortisol into the culture medium can be detected and quantified by commercially available, specific monoclonal antibodies in radioimmunoassays in accordance with the manufacturer's instructions.
(§6) Measurement of aldosterone can also be performed using a 96-well plate format. Each test sample is incubated with 0.02 μCi of D[1,2,6,7-3H(N)]aldosterone and 0.3 μg of anti-aldosterone antibody in phosphate-buffered saline (PBS) containing 0.1% Triton X-100, 0.1% bovine serum albumin, and 12% glycerol in a total volume of 200 μL at room temperature for 1 hour. Anti-mouse PVT SPA beads (50 μL) are then added to each well and incubated overnight at room temperature prior to counting in a Microbeta plate counter. The amount of aldosterone in each sample is calculated by comparing with a standard curve generated using known quantities of the hormone. Measurement of cortisol can be performed in a manner similar to that of aldosterone, except that [1,2,6,7-3H(N)]cortisol is used.
(§7) Inhibition of the release of a steroid can be used as a measure of the respective enzyme inhibition by the added test compounds. The dose-dependent inhibition of enzymatic activity by a compound is calculated by means of an inhibition plot which is characterized by an IC50. […] The inhibition plot is calculated by fitting a 4-parameter logistic function to the raw data points using the least squares method.

[2] = biological target: T2, CYP11B2 (aldosterone synthase) (Homo sapiens, UniProt P19099); experiment: Inhibition of aldosterone secretion in NCI-H295R cells; assay type: cell-based; settings: human adrenocortical carcinoma NCI-H295R cells, 24 hours with cell stimulant
T2 construct: the NCI-H295R cells have CYP11B2 (aldosterone synthase) and CYP11B1 (steroid 11-hydroxylase); host or cells: NCI-H295R
T2 sequence (P19099 25-503): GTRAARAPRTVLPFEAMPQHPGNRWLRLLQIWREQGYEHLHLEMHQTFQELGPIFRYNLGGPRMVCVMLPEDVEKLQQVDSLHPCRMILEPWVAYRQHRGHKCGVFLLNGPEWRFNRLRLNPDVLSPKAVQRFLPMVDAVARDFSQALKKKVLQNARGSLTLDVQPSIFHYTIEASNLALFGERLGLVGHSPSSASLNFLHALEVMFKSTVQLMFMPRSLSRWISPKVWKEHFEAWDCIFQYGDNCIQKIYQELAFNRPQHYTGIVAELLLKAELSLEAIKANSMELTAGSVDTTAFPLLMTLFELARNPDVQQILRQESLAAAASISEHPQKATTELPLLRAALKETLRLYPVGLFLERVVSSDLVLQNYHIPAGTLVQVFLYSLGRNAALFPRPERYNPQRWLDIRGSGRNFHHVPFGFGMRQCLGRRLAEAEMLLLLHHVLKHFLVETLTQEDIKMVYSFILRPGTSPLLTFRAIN
Description: as §1, §2, §3, §4, §5, §6, §7

Molecule `CCNS(=O)(=O)c1cncc(-c2cc3ccccc3n2C)c1` [Example 242, N-ethyl-5-(1-methyl-1H-indol-2-yl)pyridine-3-sulfonamide] has an IC50 [1] greater than 1000 nM and an IC50 [2] of 23 nM.
